Results on one compound are retold here after patent US12514938B2, “Fibroblast activation protein targeting peptides” (PERSPECTIVE THERAPEUTICS, INC., priority 2023, dated 2026).

*1 amine or outer side, *2 acyl side, *3 side chain or, on linkers, in order; H or OH if unused. Where a SMILES comes first, the peptide text is derived from it. Bridges are numbered along the chain shown (N, C = ends). The star is where a group is joined. X1 = NC(=O)CN1CCN(CC(=O)O)CCN(CC(=O)*)CCN(CC(=O)O)CC1; oXylylene = c1ccc(C[*:2])c(C[*:1])c1; PEG2 = NCCOCCOCCC(=O)O

In assay [1] the target is human dipeptidyl peptidase 4 (DPPIV) (Homo sapiens, UniProt P27487). Nature of the assay: Enzyme inhibition assay, binding specificity of VMT-FAP-2-59 (Example 3, substrate GP-AMC). The class given is biochemical. The following applies: 50 μM GP-AMC. The procedure: The enzyme inhibition assay was performed to determine inhibitor constant (i.e., Ki) values against human FAP, mouse FAP, human dipeptidyl peptidase 4 (DPPIV) and human prolyl endopeptidase (PREP). Z-GP-AMC was used as substrate for human FAP, mouse FAP and human PREP. GP-AMC was used as substrate for human DPPIV. To perform the assay, VMT-FAP-2-59 at varying concentrations (i.e. 10^−6 to 10^−12) were incubated with 5 ng hFAP, 5 ng mFAP, 2.5 ng DPPIV, or 5 ng PREP in a black 96-well plate for 10 minutes at RT on a shaker plate. The substrate was added to give a final concentration of 50 μM for Z-GP-AMC and GP-AMC. The total reaction volume per well was 100 μL The reaction was allowed to incubate at RT on a shaker plate for 1 hour protected from light, and then fluorescence was read with a BioTek Synergy LX plate reader at an ex/em (360/40 and 460/40). Experiments were performed in at least duplicate. Buffer only, buffer/enzymes, buffer/substrate and enzyme only were included as controls. Data was plotted in GraphPad Prism and non-linear regression used to calculate IC50 values. Binding kinetics (Kd) of VMT-FAP-2-59 against human FAP, human DPPIV and human PREP were also determined by grating-coupled interferometry (GCI). hFAP, hDPPIV and hPREP proteins were fixed on PCH (N=3) chips or PCP (N=2). […] On PCP chips, binding affinity of VMT-FAP-2-29 to hFAP was determined from 39 pM to 20 nM. […]
Sequence of human dipeptidyl peptidase 4 (DPPIV) (P27487 whole entry): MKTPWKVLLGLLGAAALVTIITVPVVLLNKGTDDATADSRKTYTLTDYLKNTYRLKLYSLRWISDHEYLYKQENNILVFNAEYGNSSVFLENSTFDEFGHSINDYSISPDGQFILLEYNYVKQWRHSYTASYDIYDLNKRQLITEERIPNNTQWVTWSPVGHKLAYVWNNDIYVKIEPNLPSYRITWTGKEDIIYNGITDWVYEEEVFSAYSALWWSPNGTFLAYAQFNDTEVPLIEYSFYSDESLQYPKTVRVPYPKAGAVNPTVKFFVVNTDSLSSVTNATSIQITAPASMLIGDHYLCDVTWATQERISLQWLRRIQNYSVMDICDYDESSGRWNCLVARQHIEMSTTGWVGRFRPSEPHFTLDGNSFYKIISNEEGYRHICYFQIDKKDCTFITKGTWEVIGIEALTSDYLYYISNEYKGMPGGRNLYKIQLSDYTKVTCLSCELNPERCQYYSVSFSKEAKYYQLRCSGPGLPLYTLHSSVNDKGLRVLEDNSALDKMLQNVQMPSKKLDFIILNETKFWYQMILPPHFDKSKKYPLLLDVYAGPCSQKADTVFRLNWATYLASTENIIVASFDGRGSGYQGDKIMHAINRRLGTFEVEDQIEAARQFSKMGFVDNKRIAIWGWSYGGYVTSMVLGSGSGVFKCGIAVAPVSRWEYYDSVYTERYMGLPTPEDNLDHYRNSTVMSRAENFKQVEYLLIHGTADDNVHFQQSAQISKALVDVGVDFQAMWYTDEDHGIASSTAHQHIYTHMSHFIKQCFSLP

The target of assay [2] is T1, Human Fibroblast Activation Protein (FAP) (Homo sapiens, UniProt Q12884).
T1 sequence (Q12884 1-760): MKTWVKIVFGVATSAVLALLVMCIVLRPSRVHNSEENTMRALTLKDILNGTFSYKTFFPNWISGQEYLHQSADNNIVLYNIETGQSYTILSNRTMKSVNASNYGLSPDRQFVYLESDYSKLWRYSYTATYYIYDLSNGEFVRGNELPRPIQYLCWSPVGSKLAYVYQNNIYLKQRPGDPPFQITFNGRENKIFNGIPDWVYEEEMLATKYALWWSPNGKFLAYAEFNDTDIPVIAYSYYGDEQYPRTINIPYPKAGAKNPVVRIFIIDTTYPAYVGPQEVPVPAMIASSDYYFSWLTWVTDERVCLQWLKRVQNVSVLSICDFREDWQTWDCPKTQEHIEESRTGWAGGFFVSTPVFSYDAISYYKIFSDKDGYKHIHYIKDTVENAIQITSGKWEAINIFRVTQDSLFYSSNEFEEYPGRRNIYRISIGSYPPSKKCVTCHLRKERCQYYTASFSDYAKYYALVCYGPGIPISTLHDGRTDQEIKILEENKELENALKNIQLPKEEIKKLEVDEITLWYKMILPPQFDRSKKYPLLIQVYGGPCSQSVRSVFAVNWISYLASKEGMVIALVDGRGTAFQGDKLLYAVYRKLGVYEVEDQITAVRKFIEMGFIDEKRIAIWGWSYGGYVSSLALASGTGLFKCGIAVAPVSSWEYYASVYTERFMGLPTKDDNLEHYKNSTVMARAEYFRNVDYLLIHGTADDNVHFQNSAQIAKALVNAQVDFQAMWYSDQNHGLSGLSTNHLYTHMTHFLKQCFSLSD
Nature of the assay: Enzyme inhibition assay against human FAP (substrate Z-GP-AMC), Example 1. The assay is classed as biochemical. The following applies: human FAP 5 ng/well, 50 μM Z-GP-AMC; Ki from IC50 by Cheng-Prusoff. In a few lines:
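FAP (5 ng/well) preincubated 10 min at RT with peptide (10^−6 to 10^−12), then 50 μM Z-GP-AMC added for 1 h at RT, protected from light. Buffer 50 mM Tris-HCl, 1 M NaCl, 1 mg/mL BSA, pH 7.5; fluorescence at ex/em 360/460. IC50 from non-linear regression, converted to Ki via Cheng-Prusoff using known substrate Km.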

In another assay the target is T2, human PREP (Homo sapiens, UniProt P48147).
T2 sequence (P48147 1-710): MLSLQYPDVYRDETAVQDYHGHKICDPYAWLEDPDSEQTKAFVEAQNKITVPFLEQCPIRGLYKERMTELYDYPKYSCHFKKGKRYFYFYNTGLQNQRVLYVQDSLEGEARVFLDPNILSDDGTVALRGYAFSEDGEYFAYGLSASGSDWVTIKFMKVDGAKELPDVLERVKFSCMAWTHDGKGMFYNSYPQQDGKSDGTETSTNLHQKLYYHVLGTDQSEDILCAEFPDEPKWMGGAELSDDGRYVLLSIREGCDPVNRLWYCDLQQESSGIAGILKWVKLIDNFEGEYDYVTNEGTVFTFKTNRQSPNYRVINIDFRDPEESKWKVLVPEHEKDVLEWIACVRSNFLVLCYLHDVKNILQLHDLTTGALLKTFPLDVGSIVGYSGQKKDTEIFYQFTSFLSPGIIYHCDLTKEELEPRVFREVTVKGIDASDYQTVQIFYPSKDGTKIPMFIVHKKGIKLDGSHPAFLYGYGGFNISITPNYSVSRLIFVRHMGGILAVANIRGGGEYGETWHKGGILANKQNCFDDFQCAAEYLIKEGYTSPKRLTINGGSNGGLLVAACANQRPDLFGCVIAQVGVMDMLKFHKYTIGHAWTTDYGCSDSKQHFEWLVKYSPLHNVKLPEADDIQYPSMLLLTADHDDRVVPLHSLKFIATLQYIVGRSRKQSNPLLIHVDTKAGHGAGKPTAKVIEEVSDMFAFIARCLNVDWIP
Put plainly: Grating-coupled interferometry (GCI) binding kinetics. The protocol: (§1) The enzyme inhibition assay was performed to determine inhibitor constant (i.e., Ki) values against human FAP, mouse FAP, human dipeptidyl peptidase 4 (DPPIV) and human prolyl endopeptidase (PREP). Z-GP-AMC was used as substrate for human FAP, mouse FAP and human PREP. GP-AMC was used as substrate for human DPPIV. To perform the assay, VMT-FAP-2-59 at varying concentrations (i.e. 10^−6 to 10^−12) were incubated with 5 ng hFAP, 5 ng mFAP, 2.5 ng DPPIV, or 5 ng PREP in a black 96-well plate for 10 minutes at RT on a shaker plate. The substrate was added to give a final concentration of 50 μM for Z-GP-AMC and GP-AMC. The total reaction volume per well was 100 μL The reaction was allowed to incubate at RT on a shaker plate for 1 hour protected from light, and then fluorescence was read with a BioTek Synergy LX plate reader at an ex/em (360/40 and 460/40). Experiments were performed in at least duplicate. Buffer only, buffer/enzymes, buffer/substrate and enzyme only were included as controls. Data was plotted in GraphPad Prism and non-linear regression used to calculate IC50 values. Binding kinetics (Kd) of VMT-FAP-2-59 against human FAP, human DPPIV and human PREP were also determined by grating-coupled interferometry (GCI). hFAP, hDPPIV and hPREP proteins were fixed on PCH (N=3) chips or PCP (N=2). […] On PCP chips, binding affinity of VMT-FAP-2-29 to hFAP was determined from 39 pM to 20 nM. Binding affinity to hDPPIV and hPREP was determined at concentration from 39 pM to 50 nM.

The next assay addresses T3, human FAP (Homo sapiens, UniProt Q12884).
T3 sequence (Q12884 1-760): T1 sequence (Q12884 1-760)
Described as above. The following applies: GCI on PCH/PCP chips. The protocol: as §1

For the next assay, the target named is human DPPIV (Homo sapiens, UniProt P27487). The description is as above. The procedure:
as §1

Sequence of human DPPIV (P27487 whole entry): as the sequence (P27487 whole entry) above

Take `C[C@@H](O)[C@@H]1NC(=O)[C@@H](NC(=O)CCOCCOCCNC(=O)CN2CCN(CC(=O)O)CCN(CC(N)=O)CCN(CC(=O)O)CC2)CSCc2ccccc2CSC[C@@H](C(N)=O)NC(=O)[C@H](Cc2c[nH]c3ccccc23)NC(=O)[C@H](Cc2c[nH]c3ccccc23)NC(=O)[C@H](CCC(N)=O)NC(=O)[C@H](CCC(=O)O)NC(=O)[C@H](Cc2c[nH]c3ccccc23)NC(=O)[C@@H]2CCCN2C1=O` [VMT-FAP-2-59, PSC-PEG2-[C(oXdB)TPWEQWWC]-NH2] ({X1-PEG2}-CTPWEQWWC-NH2; linker 1-9 via oXylylene): the Ki entry was “No binding” in assay [1] and 0.36 nM in assay [2]. The Kd result was “No binding” at human PREP, 2 nM at human FAP and “No binding” on human DPPIV.

What is called Ki is the dissociation constant of the complex between target and ligand, obtained from inhibition or displacement. As a reminder, the Kd is the concentration at which binding is half-saturated.
